From US9434688B2, “Indole derivatives as selective androgen receptor modulators (SARMS)” (Janssen Pharmaceutica, NV, priority 2004, dated 2016)

Assays:
androgen receptor [1] = biological target: T1, androgen receptor (Rattus norvegicus, UniProt P15207); experiment: COS-7 Whole-Cell Androgen Receptor Binding Assay, Adenovirus Transduction; details: COS Binding; for % Inhibition: concentration of 3000 nM unless otherwise noted
T1 sequence (P15207 1-902): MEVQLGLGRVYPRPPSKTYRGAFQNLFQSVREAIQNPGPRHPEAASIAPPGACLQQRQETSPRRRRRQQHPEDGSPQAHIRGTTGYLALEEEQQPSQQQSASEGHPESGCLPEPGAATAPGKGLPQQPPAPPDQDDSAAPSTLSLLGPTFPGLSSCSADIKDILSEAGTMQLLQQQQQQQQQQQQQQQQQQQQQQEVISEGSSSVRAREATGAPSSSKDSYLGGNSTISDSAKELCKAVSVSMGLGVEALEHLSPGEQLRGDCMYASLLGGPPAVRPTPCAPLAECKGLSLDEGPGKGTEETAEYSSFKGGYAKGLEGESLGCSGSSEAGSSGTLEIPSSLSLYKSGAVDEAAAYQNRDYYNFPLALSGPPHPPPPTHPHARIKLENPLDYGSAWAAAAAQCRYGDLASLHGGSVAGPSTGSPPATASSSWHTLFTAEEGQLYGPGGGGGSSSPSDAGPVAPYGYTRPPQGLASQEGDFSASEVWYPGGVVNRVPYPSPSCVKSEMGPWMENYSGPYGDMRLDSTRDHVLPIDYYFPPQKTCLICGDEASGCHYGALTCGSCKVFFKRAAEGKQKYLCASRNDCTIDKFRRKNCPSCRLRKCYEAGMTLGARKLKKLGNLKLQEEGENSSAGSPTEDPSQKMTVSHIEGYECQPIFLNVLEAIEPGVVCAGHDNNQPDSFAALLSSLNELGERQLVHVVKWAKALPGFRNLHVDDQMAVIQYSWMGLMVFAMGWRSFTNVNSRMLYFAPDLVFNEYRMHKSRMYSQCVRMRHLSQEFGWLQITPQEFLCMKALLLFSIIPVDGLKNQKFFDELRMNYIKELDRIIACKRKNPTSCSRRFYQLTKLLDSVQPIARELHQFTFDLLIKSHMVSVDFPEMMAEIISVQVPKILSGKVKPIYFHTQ
Description: COS-7 cells were plated in 96-well plates at 20,000 cells per well, in a solution of DMEM/F12 (GIBCO) containing 10% (v/v) charcoal-treated fetal bovine serum (Hyclone) and lacking phenol red. The cells were then incubated overnight at 37° C. in 5% (v/v) humidified CO2.
Test compound solutions were prepared by diluting the test compound in 100% (v/v) DMSO, if necessary.
Next, 1 mL of DMEM/F12 lacking phenol red was pipetted into each of the wells of a 2-mL 96-well assay block. […] The wells were carefully mixed by pipette.
In a 15 mL or 50 mL sterile centrifuge tube, a dilution in DMEM/F12 of the adenovirus AdEasy+rAR at a moi of 1:50 per well was prepared.
The medium was removed from the 96-well plates by inversion and the plates dried very briefly, inverted, on a sterile towel. As soon as possible after medium removal, 40 μL of the diluted test compound was added to each well, in duplicate. […] The plates were then incubated for 48 hours at 37° C. in 5% (v/v) humidified CO2.
The medium was removed from the above incubated plates by inversion and dried. Each well was then washed with 0.35 mL of 1×PBS. The PBS was then removed from the plates by inversion and the plates dried.
To each well was then added 50 μL of 0.5% (v/v) Triton X-100 (Sigma) in 1×PBS and the plates placed on a rotary shaker for 5 min. The contents of each well were then transferred to an OptiPlate-96 (Packard) scintillation plate. To each well was then added 0.2 mL of Microscint-20 (Packard) and the wells counted on a TopCount (Packard).
Percent inhibition was determined by testing dilutions of the test compound (usually duplicates of 10 μM) in the binding assay. Counts per well were measured and percents of inhibition determined. […] Counts per well were measured and IC50s determined by linear regression.

androgen receptor [2] = biological target: T1, androgen receptor; experiment: L929 Androgen Receptor Functional Assay, Adenovirus Transduction; type: cell-based; set-up: expressed in transfected cells; host or cells: L929 cells transduced with adenovirus AdEasy+rAR; details: concentration of 3000 nM; for % Activity: L929 agonist testing; for % Inhibition: L929 antagonist testing with R1881
Description: L929 cells were plated in 96-well plates at 20,000 cells per well, in DMEM/F12 (GIBCO) containing 10% (v/v) charcoal-treated fetal bovine serum (Hyclone) and lacking phenol red. The plates were then incubated overnight at 37° C. in 5% (v/v) humidified CO2.
Test compound dilutions were prepared in 100% (v/v) DMSO, if necessary. Each dilution was made to 1250× the final desired assay concentration.
First, 2 mL of DMEM/F12 lacking phenol red was pipetted into the wells of a 2-mL 96-well assay block. Next, 4 μL of the 1250× test compound dilutions were pipetted into each well of the assay block. The mixtures within the well were then carefully mixed by pipette.
In a 15 mL or 50 mL sterile centrifuge tube, a 2.5 nM (2.5×) dilution of R1881 (methyl-trienolone) in DMEM/F12 lacking phenol red was prepared.
In a second 15 mL or 50 mL centrifuge tube a solution containing an equal volume of DMEM to the first and an equal volume of 100% (v/v) DMSO to the volume of R1881 used in the first tube was prepared.
In a 15 mL or 50 mL sterile centrifuge tube, a dilution in DMEM/F12 of the adenovirus AdEasy+rAR at an moi of 1:500 per well was prepared.
The medium was removed from the 96-well plates by inversion and dried, inverted, very briefly. As soon as possible after medium removal, 40 μL of the diluted unlabeled test compound was added to each well, in duplicate. To each well designated for antagonist testing was added 40 μL of the 2.5 nM R1881 dilution to the wells for antagonist testing. To each well designated for agonist testing was added 40 μL of the DMSO dilution. Then 20 μL of the diluted adenovirus were added to all wells. The plates were incubated for 48 hours at 37° C. in 5% (v/v) humidified CO2.
To each well was added 100 μL of Steady-Glo luciferase assay substrate (Promega) and the plates were placed on a rotary shaker for 1 min. The plates were then incubated at room temperature in the dark for one hour. The contents of each well were then transferred to a white microtiter plate (Packard) and read on a Luminoskan Ascent (Thermo Lab Systems).
L929 AR percent activity was determined by testing dilutions of the test compound using a concentration of 3000 nM unless otherwise noted. L929 percent inhibition was determined by testing dilutions of the test compound using a concentration of 3000 nM. […] Luciferase activity per well were measured and EC50s and IC50s determined by linear regression.

androgen receptor [3] = biological target: T1, androgen receptor; experiment: Androgen Receptor Binding Using Rat Ventral Prostate Cytosol; set-up: from tissue; host or cells: ventral prostate cytosol of castrated male Sprague Dawley or Wistar rats; details: Rat Cytosol; Concentration 3000 nM
Description: Rat Prostate Cytosol Preparation:
Male Sprague Dawley or Wistar rats (Charles River, 200-300 g) were used for each preparation. The day before preparing the cytosol, the rats were castrated using standard surgical procedures.
The rats were euthanized by carbon dioxide asphyxiation. The rat prostates were quickly removed and placed on ice in pre-chilled, pre-weighed 50 mL plastic tubes. No more than five prostates were placed into one tube. The tubes were then weighed and the prostate tissue wet weights calculated.
To the chilled prostate tissue was then added […] of chilled homogenization buffer. The homogenization buffer was freshly prepared by mixing 10 mM Tris.HCl, pH 7.4, 1 mM sodium molybdate, 1.5 mM EDTA, 1 mM dithiothreitol, 10% (v/v) glycerol and 1% protease inhibitor cocktail (Sigma P 8340).
The prostate tissue was homogenized in a cold room using a pre-chilled Polytron PT3000 homogenizer (Brinkmann). Homogenization was performed at a speed setting of 20, three times for 10 sec bursts. The tubes containing the prostate tissue was kept on ice while homogenizing. The homogenate was allowed to rest on ice for 20 sec between bursts.
The homogenate was then placed into pre-chilled 3 mL polycarbonate ultracentrifuge tubes and centrifuged in the TLA-100 rotor of a TL-100 ultracentrifuge for 12 min at 100,000 rpm at 4° C. The resulting supernatant was stored in 1 mL aliquots at −80° C. until needed.
Binding to the androgen receptor was determined according to the protocol described in Example 86 using the above prepared rat cytosol.
% Inhibition was determined by testing dilutions of the test compound (usually duplicates of 10 μM) in the binding assay. Counts per well were measured and percents of inhibition determined. […] Counts per well were measured and IC50s determined by linear regression.

[4] = system: castrated male Sprague Dawley rats; experiment: Ventral Prostate and Seminal Vesicle Weight In Vivo Assay; set-up: species or system rat; key: active: non weight adjusted prostate weight was ≦40 mg or the % Inhibition prostate weight, body weight adjusted was ≧40% @ 2 mg/day dosage; inactive: they did not meet the specified criteria defined above; details: immature castrated male rats, once daily for five days, with testosterone propionate 2 mg/kg subcutaneously
Description: Immature (approximately 50 g) castrated male Sprague Dawley rats (Charles River) were treated once daily for five days with test compound (usually given orally at 40 mg/kg in a volume of 0.3 mL, in 30% cyclodextrin or 0.5% methylcellulose vehicle) and with testosterone propionate (given subcutaneously by injection at the nape of the neck at 2 mg/kg, in a volume of 0.1 mL in sesame oil). On the sixth day, the rats were euthanized by asphyxiation in carbon dioxide. Ventral prostates and seminal vesicles were removed and their wet weights determined.
A test compound was said to be “active” if the non weight adjusted prostate weight was ≦40 mg or the % Inhibition prostate weight, body weight adjusted was ≧40% @ 2 mg/day dosage.

| Compound | % Inhibition (androgen receptor [1]) | % Activity (androgen receptor [2]) | active / inactive: inhibition of testosterone-enhanced prostate weight [4] | also measured |
| --- | --- | --- | --- | --- |
| CC(O)(CSc1ccc(N)cc1)c1cc2cc(Cl)c(C(F)(F)F)cc2n1S(C)(=O)=O (racemic) [compound 125] | 30% | −5% | – | – |
| CCSCC(C)(O)c1[nH]c2cc(C(F)(F)F)c(Br)cc2c1C (stereo not drawn) [compound 220] | – | – | – | IC50 (androgen receptor [1]): 34 nM |
| COc1ccc(S(=O)(=O)CC(C)(O)c2cc3cc(Cl)c(C(F)(F)F)cc3[nH]2)cc1 (racemic) [compound 129] | 10% | −5% | – | % Inhibition (androgen receptor [3]): 39.5%; % Inhibition (androgen receptor [2]): −8% |
| C[S+]([O-])CCC(C)(O)c1cc2cc([N+](=O)[O-])c(C(F)(F)F)cc2[nH]1 (mixture of isomers) [compound 50] | 7% | 2% | – | – |
| N#Cc1cc2cc(C3(O)CCSC3)[nH]c2cc1C(F)(F)F (stereo not drawn) [Compound #15] | – | – | inactive | – |
| CC(O)(C[S+]([O-])Cc1ccccc1)c1cc2cc([N+](=O)[O-])c(C(F)(F)F)cc2[nH]1 (mixture of isomers) [compound 161] | 20% | 2% | – | % Inhibition (androgen receptor [3]): 39% |
| CSCC(C)(O)c1cc2cc([N+](=O)[O-])c(C(F)(F)F)cc2[nH]1 (stereo not drawn) [compound 139] | – | – | active | – |
| CCSCC(C)(O)c1cc2cc(C#N)c(Cl)cc2[nH]1 (stereo not drawn) [compound 225] | – | – | active | – |
| O=[N+]([O-])c1cc2cc(C3(O)CCSC3)[nH]c2cc1C(F)(F)F (stereo not drawn) [compound 18] | – | – | inactive | – |
| OC1(c2cc3cc(Cl)c(C(F)(F)F)cc3[nH]2)CCSC1 (stereo not drawn) [compound 14] | – | – | inactive | – |
| CCSCC(C)(O)c1[nH]c2cc(C(F)(F)F)c([N+](=O)[O-])cc2c1C (racemic) [compound 221] | – | −1% | inactive | – |
| COc1ccc(SCC(C)(O)c2cc3cc(Cl)c(C(F)(F)F)cc3n2S(C)(=O)=O)cc1 (racemic) [compound 130] | −8% | −5% | – | % Inhibition (androgen receptor [3]): 32.55% |
| CCSCC(C)(O)c1cc2cc(Cl)ccc2n1S(C)(=O)=O (racemic) [compound 154] | 50% | 2% | – | % Inhibition (androgen receptor [2]): 7% |
| CCSCC(C)(O)c1cc2cc(F)c(Cl)cc2[nH]1 (racemic) [compound 206] | −40% | 5% | active | – |
| CC(O)(CSCC(F)(F)F)c1cc2cc([N+](=O)[O-])c(C(F)(F)F)cc2[nH]1 (single isomer, unassigned) [compound 202] | 50% | 1% | – | – |
